Measured values: the OPERA property sets (Mansouri et al. 2018)
Values after ≈ are worked out from the molar mass of the structure shown.

NC(=S)NC(N)=S
solubility (27 °C): 20 mM (≈ 2700 µg/mL)

O=C(OC(=O)c1ccccc1)c1ccccc1
solubility (25 °C): 0.0442 mM (≈ 10 µg/mL)

CC(=O)N(O)CCCCCNC(=O)CCC(=O)N(O)CCCCCNC(=O)CCC(=O)N(O)CCCCCN
solubility (20 °C): 21.4 mM (≈ 12000 µg/mL)

CN(CCO)c1nc2c(c(=O)n(C)c(=O)n2C)n1C
solubility: 224 mM (≈ 60000 µg/mL)

CC(=O)OC[C@H]1O[C@@](COC(C)=O)(O[C@H]2O[C@H](COC(C)=O)[C@@H](OC(C)=O)[C@H](OC(C)=O)[C@H]2OC(C)=O)[C@@H](OC(C)=O)[C@@H]1OC(C)=O
solubility: 1.34 mM (≈ 910 µg/mL)

NC(=O)N(CCO)/N=C/c1ccc([N+](=O)[O-])o1
solubility: 2.06 mM (≈ 500 µg/mL)

O=C([O-])c1ccccc1C(=O)O.[K+]
solubility: 408 mM

CCC(C)C1(CC)C(=O)N=C([O-])NC1=O.[Na+] (stereo unspecified)
solubility: 1420 mM

O=C1NCCN1/N=C/c1ccc([N+](=O)[O-])o1
solubility: 0.439 mM (≈ 98.5 µg/mL)

Oc1c(Cl)cc(Cl)cc1Sc1cc(Cl)cc(Cl)c1O
solubility (25 °C): 0.0112 mM (≈ 4 µg/mL)

CCOc1ccc2nc3cc(N)ccc3c(N)c2c1
solubility: 263 mM (≈ 66600 µg/mL)

CCC(C)(CC)OC(N)=O
solubility: 27.5 mM (≈ 4000 µg/mL)

CCN(CC)C(=O)CSc1ccc(Cl)nn1
solubility: 19.2 mM (≈ 5000 µg/mL)

NC(=O)c1cnccn1
solubility (25 °C): 122 mM (≈ 15000 µg/mL)

CCC(C)C(C)(COC(N)=O)COC(N)=O (stereo unspecified)
solubility: 4.31 mM (≈ 1000 µg/mL)

CN1C(=O)CCS(=O)(=O)C1c1ccc(Cl)cc1 (stereo unspecified)
solubility (25 °C): 9.13 mM (≈ 2500 µg/mL)

O=S(=O)([O-])CS(=O)(=O)[O-].[Ca+2]
solubility: 1340 mM

Cn1ccc(=O)c2ccccc21
solubility: 104 mM (≈ 16600 µg/mL)

CNC(=S)NCO
solubility: 832 mM (≈ 100000 µg/mL)

Cn1c(=O)c2c(ncn2CC(O)CO)n(C)c1=O (stereo unspecified)
solubility (25 °C): 1310 mM (≈ 333000 µg/mL)

CO[C@H]1O[C@H](CNC(=O)N(CCCl)N=O)[C@@H](O)[C@H](O)[C@H]1O
solubility (25 °C): 27.5 mM (≈ 9000 µg/mL)

CC(N)c1ccccc1 (stereo unspecified)
solubility (20 °C): 347 mM (≈ 42000 µg/mL)

CCCC(C)(COC(N)=O)COC(=O)NC(C)C (stereo unspecified)
solubility (25 °C): 1.15 mM (≈ 300 µg/mL)

O=C(C(=O)c1cc([N+](=O)[O-])ccc1O)c1cc([N+](=O)[O-])ccc1O
solubility (25 °C): 0.301 mM (≈ 100 µg/mL)

NC(=O)c1cccnc1
solubility (25 °C): 4090 mM (≈ 500000 µg/mL)

S=P(N1CC1)(N1CC1)N1CC1
solubility (25 °C): 1000 mM (≈ 190000 µg/mL)

CN1C2CCCC1CC(=O)C2
solubility: 2610 mM (≈ 400000 µg/mL)

C[C@H]1O[C@H](O[C@H]2CC[C@H](n3ccc(NC(=O)c4ccc(NC(=O)[C@@](C)(N)CO)cc4)nc3=O)O[C@@H]2C)[C@H](O)[C@@H](O)[C@@H]1N(C)C
solubility (25 °C): 3.23 mM (≈ 2000 µg/mL)

CC(C)(C)C(O)C(Oc1ccc(Cl)cc1)n1cncn1 (stereo unspecified)
solubility (20 °C): 0.406 mM (≈ 120 µg/mL)

O=C(C1CCCCC1)N1CC(=O)N2CCc3ccccc3C2C1 (stereo unspecified)
solubility: 1.28 mM (≈ 400 µg/mL)

CCCCN(CCN(CCCC)C(=O)N1CCOCC1)C(=O)N1CCOCC1
solubility: 1250 mM (≈ 500000 µg/mL)

C[C@H](O)[C@@H](O)c1cnc2[nH]c(N)nc(=O)c2n1
solubility (20 °C): 2.95 mM (≈ 700 µg/mL)

OC(CI)CI
solubility: 40.1 mM (≈ 12500 µg/mL)

NC(Cc1cc(Br)c(O)c(Br)c1)C(=O)O (stereo in doubt)
solubility (25 °C): 11.8 mM (≈ 4000 µg/mL)

C=C(C)C(=O)C(=CC(=O)O)OC
solubility (25 °C): 118 mM (≈ 20000 µg/mL)

NC(=S)Nc1cccc2ccccc12
solubility (25 °C): 2.97 mM (≈ 600 µg/mL)

O=C(c1ccc(F)cc1)C1CCN(CCn2c(=O)[nH]c3ccccc3c2=O)CC1
solubility (25 °C): 0.0253 mM (≈ 10 µg/mL)

NC(=O)OCC(Cl)(Cl)Cl
solubility: 52 mM (≈ 10000 µg/mL)

CCCOC(=O)c1cc(O)c(O)c(O)c1
solubility (25 °C): 16.5 mM (≈ 3500 µg/mL)

O=[N+]([O-])c1ccc(C=NO)o1
solubility (25 °C): 6.41 mM (≈ 1000 µg/mL)

CCSc1nnc(C(C)(C)C)c(=O)n1N
solubility (20 °C): 1.84 mM (≈ 420 µg/mL)

CNC[C@H](O)[C@@H](O)[C@H](O)[C@H](O)CO
solubility (25 °C): 3620 mM (≈ 707000 µg/mL)

COc1cc([C@@H]2c3cc4c(c(O)c3C[C@H]3COC(=O)[C@@H]32)OCO4)cc(OC)c1OC
solubility (23 °C): 0.0314 mM (≈ 13 µg/mL)

CC(=O)Nc1c(I)c(C(=O)N[C@H]2C(O)O[C@H](CO)[C@@H](O)[C@@H]2O)c(I)c(N(C)C(C)=O)c1I (stereo partly specified)
solubility (25 °C): 634 mM (≈ 500000 µg/mL)

COCCOc1c(OC)cc(Cc2cnc(N)nc2N)cc1OC
solubility (30 °C): 7.93 mM (≈ 2650 µg/mL)

O=C(OC[C@H]1O[C@@H](Oc2ccccc2CO)[C@H](O)[C@@H](O)[C@@H]1O)c1ccccc1
solubility: 1.28 mM (≈ 500 µg/mL)

CC[C@@]12CCCN3CC[C@]4(c5cccc(OC)c5N(C(C)=O)[C@@H]4CC1)[C@H]32
solubility: 47.1 mM (≈ 16700 µg/mL)

O=Cc1ccccc1O[C@@H]1O[C@H](CO)[C@@H](O)[C@H](O)[C@H]1O
solubility: 63.3 mM (≈ 18000 µg/mL)

Nc1nc(N)nc(-c2ccccc2)n1
solubility (22 °C): 3.2 mM (≈ 600 µg/mL)

COc1ccc(C(CN(C)C)C2(O)CCCCC2)cc1.Cl (stereo unspecified)
logP: 0.43

CC(=O)OC(C)(C)C
solubility (25 °C): 71.7 mM (≈ 8330 µg/mL)

CC(=O)N/N=C/c1ccc([N+](=O)[O-])o1
solubility: 2.54 mM (≈ 500 µg/mL)

OCc1cc(Br)ccc1O
solubility (25 °C): 621 mM (≈ 126000 µg/mL)

C#CCOC(=O)/C=C(C)/C=C/CC(C)CCCC(C)C (stereo unspecified)
solubility: 0.0189 mM (≈ 5.22 µg/mL)

Nc1ccc(S(=O)(=O)c2cnc(N)s2)cc1
solubility (28 °C): 1.57 mM (≈ 400 µg/mL)

Clc1ncnc2[nH]cnc12
solubility (20 °C): 32.4 mM (≈ 5000 µg/mL)

Cc1cc(O)c(C(C)C)cc1Cl
solubility (25 °C): 5.42 mM (≈ 1000 µg/mL)

O=C[C@H](O)C(O)[C@H](O)CO (stereo in doubt)
solubility: 3700 mM (≈ 555000 µg/mL)

O=C1OC(CN2CCOCC2)CN1N=Cc1ccc([N+](=O)[O-])o1 (stereo unspecified)
solubility (25 °C): 2.31 mM (≈ 750 µg/mL)

C[C@](N)(Cc1ccc(O)c(O)c1)C(=O)O
solubility (25 °C): 47.3 mM (≈ 10000 µg/mL)

O=C1C(Br)=CC(=NCl)C=C1Br
solubility (25 °C): 0.196 mM (≈ 58.8 µg/mL)
